Usually melting point stands for the temperature, or range, at which the solid turns liquid.

Several values for one entry are separate records, joined by “and”; a condition that tells them apart may be missing. Identical values can stand only once.

This is an account of results in patent US20020026052A1, “3-cyanoquinolines, 3-cyano-1,6-naphthyridines, and 3-cyano-1,7-naphthyridines as protein kinase inhibitors” (American Home Products Corporation, priority 2000, published 2002).

The target in data set [1] is Rat2 fibroblasts stably transformed with v-Src/Hu c-Src fusion gene (Homo sapiens, UniProt P12931, cells depend on it, form not given). As to the kind of experiment: Anchorage Independent Src-transformed Fibroblast Proliferation Assay. Conditions: suspension growth, MTS reagent on Day 5; read-out: anch-indep src-tx fib IC50. Format: cell-based, Rat. The procedure: Anchorage Independent Src-transformed Fibroblast Proliferation Assay
Chain of Rat2 fibroblasts stably transformed with v-Src/Hu c-Src fusion gene (P12931 whole entry, stated change not applied, the tested form may be a part): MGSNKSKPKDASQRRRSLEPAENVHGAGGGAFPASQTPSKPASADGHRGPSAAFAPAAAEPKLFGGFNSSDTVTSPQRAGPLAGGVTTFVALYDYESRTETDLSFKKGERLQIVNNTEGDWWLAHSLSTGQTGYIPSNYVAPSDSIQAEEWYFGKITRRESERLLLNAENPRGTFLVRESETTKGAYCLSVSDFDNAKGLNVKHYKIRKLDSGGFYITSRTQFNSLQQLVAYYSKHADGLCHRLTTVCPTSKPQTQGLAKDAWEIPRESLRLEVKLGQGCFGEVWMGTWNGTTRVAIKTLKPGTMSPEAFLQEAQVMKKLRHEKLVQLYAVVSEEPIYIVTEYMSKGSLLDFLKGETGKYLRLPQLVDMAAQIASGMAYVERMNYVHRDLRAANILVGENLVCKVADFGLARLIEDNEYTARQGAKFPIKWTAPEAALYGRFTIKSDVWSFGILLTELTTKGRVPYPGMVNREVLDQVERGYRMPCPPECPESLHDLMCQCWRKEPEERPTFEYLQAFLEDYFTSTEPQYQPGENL
Rat2 fibroblasts stably transformed with a plasmid containing a CMV promotor controlled v-Src/Hu c-Src fusion gene in which the catalytic domain of human c-Src was inserted in place of the v-Src catalytic domain in the v-Src gene are used for the measurement of src dependent suspension growth. […] Multiple entries for a given compound indicate that it was tested multiple times.
(In general: Formazan colour is commonly taken as a measure of viable cells.)

`COc1cc(Nc2c(C#N)cnc3cc(-c4ccc(CNCCS(=O)(=O)c5ccccc5)cc4)ccc23)c(Cl)cc1Cl` [Example 85, 4-(2,4-dichloro-5-methoxyanilino)-7-[4-({[2-(phenylsulfonyl)ethyl)amino}methyl)phenyl]-3-quinolinecarbonitrile]: the melting point fell in the range of 198 to 201 °C. In data set [1], the GI50 was found to be 10200 nM.
Taken in the same sequence, the figures for `COc1cc(Nc2c(C#N)cnc3cc(-c4ccc(CN(C)C)cc4)ccc23)c(Cl)cc1Cl` [Example 86, 4-(2,4-dichloro-5-methoxyanilino)-7-{4-[(dimethylamino)methyl]phenyl}-3-quinolinecarbonitrile] were 187 to 189 °C and 210 nM.
Taken in the same sequence, the figures for `CCN(CC)Cc1ccc(-c2ccc3c(Nc4cc(OC)c(Cl)cc4Cl)c(C#N)cnc3c2)cc1` [Example 87, 4-(2,4-Dichloro-5-methoxyanilino)-7-{4-[(diethylamino)methyl]phenyl}-3-quinolinecarbonitrile] were 191 to 195 °C and 220 nM.
In turn, `COc1cc(Nc2c(C#N)cnc3cc(-c4ccc(CNCCS(C)(=O)=O)cc4)ccc23)c(Cl)cc1Cl` [Example 88, 4-(2,4-dichloro-5-methoxyanilino)-7-[4-({[2-(methylsulfonyl)ethyl]amino}methyl)phenyl]-3-quinolinecarbonitrile] registered a melting point of 245 to 246 °C. Also, the GI50 in data set [1] turned out to be 850 nM.
The like results for `COc1ccc(C#Cc2ccc3c(Nc4cc(OC)c(Cl)cc4Cl)c(C#N)cnc3c2)cc1` [Example 90, 4-(2,4-dichloro-5-methoxyanilino)-7-[2-(4-methoxyphenyl)ethynyl]-3-quinolinecarbonitrile] were, in that order, 225 to 226 °C and greater than 10000 nM.
The compound `COc1cc(Nc2c(C#N)cnc3cc(-n4cccc4)ccc23)c(Cl)cc1Cl` [Example 92, 4-(2,4-Dichloro-5-methoxyanilino)-7-pyrrol-1-yl-3-quinolinecarbonitrile] yielded a melting point of 205 to 207 °C. Moreover, the GI50 in data set [1] was 2110 nM.
The like results for `COc1cc(Nc2c(C#N)cnc3cc(-c4ccc(CO)cc4)ccc23)c(Cl)cc1Cl` [Example 101, 4-(2,4-Dichloro-5-methoxyanilino)-7-[4-(hydroxymethyl)phenyl]-3-quinolinecarbonitrile] were, in that order, 264 to 267 °C and greater than 10000 nM.
The like results for `COc1cc(Nc2c(C#N)cnc3cc(-c4ccc(CCl)cc4)ccc23)c(Cl)cc1Cl` [Example 102, 7-[4-(Chloromethyl)phenyl]-4-(2,4-dichloro-5-methoxyanilino)-3-quinolinecarbonitrile] were, in that order, 236 to 239 °C and 7500 nM.
Taken in the same sequence, the figures for `COc1cc(Nc2c(C#N)cnc3cc(-c4ncccc4CN4CCOCC4)ccc23)c(Cl)cc1Cl` [Example 111, 4-(2,4-Dichloro-5-methoxyanilino)-7-[3-(morpholin-4-ylmethyl)-pyridin-2-yl]-3-quinolinecarbonitrile] were 151 to 154 °C and greater than 10000 nM.
As for `COc1cc(Nc2c(C#N)cnc3cc(-c4cccc5ccccc45)ccc23)c(Cl)cc1Cl` [Example 116, 4-(2,4-Dichloro-5-methoxyanilino)-7-(1-naphthyl)-3-quinolinecarbonitrile], the melting point fell in the range of 192 to 193 °C. In addition, in data set [1], the GI50 was greater than 10000 nM.
The like results for `COc1cc(Nc2c(C#N)cnc3cc(-c4ccc5ccccc5c4)ccc23)c(Cl)cc1Cl` [Example 117, 4-(2,4-Dichloro-5-methoxyanilino)-7-(2-naphthyl)-3-quinolinecarbonitrile] were, in that order, 243 to 244 °C and 6900 nM.
The like results for `COc1cc(Nc2c(C#N)cnc3cc(-c4cccc(NC(C)=O)c4)ccc23)c(Cl)cc1Cl` [Example 118, N-{3-[3-Cyano-4-(2,4-dichloro-5-methoxyanilino)-7-quinolinyl]phenyl}acetamide] were, in that order, 262 to 263 °C and 3000 nM.
The like results for `COc1cc(Nc2c(C#N)cnc3cc(-c4cc5ccccc5o4)ccc23)c(Cl)cc1Cl` [Example 119, 7-(1-Benzofuran-2-yl)-4-(2,4-dichloro-5-methoxyanilino)-3-quinolinecarbonitrile] were, in that order, 276 to 277 °C and greater than 10000 nM.
`COc1cc(Nc2c(C#N)cnc3cc(-c4ccc(C(=O)O)cc4)ccc23)c(Cl)cc1Cl` [Example 121, 4-[3-Cyano-4-(2,4-dichloro-5-methoxyanilino)-7-quinolinyl]benzoic acid] showed a melting point of 282 to 283 °C. Also, the GI50 in data set [1] was greater than 10000 nM.
In the case of `COc1ccc(Cl)c(Nc2c(C#N)cnc3cc(-c4csc(CN5CCOCC5)c4)ccc23)c1` [Example 131, 4-(2-Chloro-5-methoxyanilino)-7-[5-(4-morpholinylmethyl)-3-thienyl]-3-quinolinecarbonitrie], the melting point lay in the range of 110 to 115 °C. Moreover, in data set [1], the GI50 was determined as 90 nM.
The like results for `COc1cc(Nc2c(C#N)cnc3cc(-c4ccc(CN5CCOCC5)c(CN5CCOCC5)c4)ccc23)c(Cl)cc1C` [Example 133, 7-[3 ,4-Bis(4-morpholinylmethyl)phenyl]-4-(2-chloro-5-methoxy-4-methylanilino)-3-quinolinecarbonitrile] were, in that order, 186 to 188 °C and 730 nM.
Taken in the same sequence, the figures for `COc1cc(Nc2c(C#N)cnc3cc(C#Cc4ccc(C)cc4)ccc23)c(Cl)cc1Cl` [Example 141, 4-(2,4-Dichloro-5-methoxyanilino)-7-[2-(4-methylphenyl)ethynyl]-3-quinolinecarbonitrile] were 223 to 225 °C and greater than 10000 nM.
Taken in the same sequence, the figures for `COc1cc(Nc2c(C#N)cnc3cc(/C=C/C(=O)OC(C)(C)C)ccc23)c(Cl)cc1Cl` [Example 142, (E)-tert-Butyl 3-[3-cyano-4-(2,4-dichloro-5-methoxyanilino)-7-quinolinyl]-2-propenoate] were 203 to 204 °C and greater than 10000 nM.
As for `COc1cc(Nc2c(C#N)cnc3cc(C#CCO)ccc23)c(Cl)cc1Cl` [Example 143, 4-(2,4-Dichloro-5-methoxyanilino)-7-(3-hydroxy-1-propynyl)-3-quinolinecarbonitrile], the melting point was 245 °C (dec.). The GI50 in data set [1] is greater than 10000 nM.
Taken in the same sequence, the figures for `CCOC(=O)CC1CCN(Cc2ccc(-c3ccc4c(Nc5cc(OC)c(Cl)cc5Cl)c(C#N)cnc4c3)cc2)CC1` [Example 144, Ethyl (1-{4-[3-cyano-4-(2,4-dichloro-5-methoxyanilino)-7-quinolinyl]benzyl}-4-piperidinyl) acetate] were 142 to 144 °C and 92 nM.
Taken in the same sequence, the figures for `CCOC(=O)C1CCCCN1Cc1ccc(-c2ccc3c(Nc4cc(OC)c(Cl)cc4Cl)c(C#N)cnc3c2)cc1` (stereo not shown) [Example 145, Ethyl 1-{4-[3-cyano-4-(2,4-dichloro-5-methoxyanilino)-7-quinolinyl]benzyl}-2-piperidinecarboxylate] were 78 to 80 °C and greater than 10000 nM.
Taken in the same sequence, the figures for `COc1cc(Nc2c(C#N)cnc3cc(-c4ccc(CN5CCCCC5C(=O)O)cc4)ccc23)c(Cl)cc1Cl` (stereo not shown) [Example 147, 1-{4-[3-Cyano-4-(2,4-dichloro-5-methoxyanilino)-7-quinolinyl]benzyl}-2-piperidinecarboxylic acid] were 230 °C (dec.) and 4600 nM.
Take `CCOC(=O)C1CCCN(Cc2ccc(-c3ccc4c(Nc5cc(OC)c(Cl)cc5Cl)c(C#N)cnc4c3)cc2)C1` (stereo not shown) [Example 148, Ethyl 1-(4-{3-cyano-4-[(2,4-dichloro-5-methoxyphenyl)amino]-7-quinolinyl}benzyl)-3-piperidinecarboxylate]: the melting point was 67 to 70 °C. For the same compound, in data set [1], the GI50 was found to be 2100 nM.
The like results for `COc1cc(Nc2c(C#N)cnc3cc(-c4ccc(CN5CCCC(C(=O)O)C5)cc4)ccc23)c(Cl)cc1Cl` (stereo not shown) [Example 149, 1-(4-{3-Cyano-4-[(2,4-dichloro-5-methoxyphenyl)amino]-7-quinolinyl}benzyl)-3-piperidinecarboxylic acid] were, in that order, 235 °C (dec.) and 2500 nM.
On to `COc1cc(Nc2c(C#N)cnc3cc(-c4ccc(CN5CCS(=O)(=O)CC5)cc4)ccc23)c(Cl)cc1Cl` [Example 150, 4-[(2,4-Dichloro-5-methoxyphenyl)amino]-7-{4-[(1,1-dioxido-4-thiomorpholinyl)methyl]phenyl}-3-quinolinecarbonitrile], for which the melting point fell in the range of 248 to 251 °C. Besides, in data set [1], the GI50 is 500 nM and 520 nM.
`COc1cc(Nc2c(C#N)cnc3cc(C#CCCl)ccc23)c(Cl)cc1Cl` [Example 152, 7-(3-Chloro-1-propynyl)-4-[(2,4-dichloro-5-methoxyphenyl)amino]-3-quinolinecarbonitrile] displayed a melting point of 215 to 217 °C. In data set [1], the GI50 is 4800 nM and 3800 nM.
On to `COc1cc(Nc2c(C#N)cnc3cc(-c4ccc(CN5CCSCC5)cc4)ccc23)c(Cl)cc1Cl` [Example 153, 4-[(2,4-Dichloro-5-methoxyphenyl)amino]-7-[4-(4-thiomorpholinylmethyl)phenyl]-3-quinolinecarbonitrile], for which the melting point lay in the range of 216 to 219 °C. Besides, in data set [1], the GI50 was 2800 nM and 2700 nM.
As for `COc1cc(Nc2c(C#N)cnc3cc(-c4ccc(CO)n4C)ccc23)c(Cl)cc1Cl` [Example 162, 4-(2,4-Dichloro-5-methoxyanilino)-7-[5-(hydroxymethyl)-1-methyl-lH-pyrrol-2-yl]-3-quinolinecarbonitrile], the melting point was 175 °C (dec.). Also, the GI50 in data set [1] was greater than 10000 nM.
The like results for `COc1cc(Nc2c(C#N)cnc3cc(-c4sccc4C=O)ccc23)c(Cl)cc1Cl` [Example 163, 4-(2,4-Dichloro-5-methoxyanilino)-7-(3-formyl-2-thienyl)-3-quinolinecarbonitrile] were, in that order, 231 to 232 °C and greater than 10000 nM.
